# Measurements reported in US5270339A, “Phenoxybenzene derivative” (Kanagafuchi Kagaku Kogyo Kabushiki Kaisha, priority 1991, dated 1993).
# Key:
# [1] = test system: experimental amnesia in mice induced by cycloheximide; experiment: Anti-amnesic effect: passive avoidance task (step-through), cycloheximide-induced amnesia; format: in vivo, ddY male mice; conditions: for Step-through latency: mean of group; for responders at 3 mg/kg / responders at 1 mg/kg: Mus musculus, mice with latency > 100 seconds, read-out: Ratio of memory
# Description: (§1) As experimental animals, Wistar male rats and ddY male mice were used for the tests after they were housed for a week under every 12 hours' dark-light cycle at room temperature of 24° to 26° C.
# The effect on experimental amnesia in mice induced by cycloheximide was evaluated.
# The experiment was carried out using an experimental apparatus of passive avoidance task for mice (made by Ohara-ika-sangyo K. K.) comprising a box divided into the two compartments of dark and light. That is, the dark compartment [a box having a reverse trapezoid cross section (height: 8 cm, base line: 5 cm, oblique line: 9.5 cm) and having the length of 14 cm] was shield from a light with a black plastic case and was floored with stainless grids for giving an electrical shock so that an electricity might be turned on a determined time after interception of a photobeam placed in the dark compartment. The light compartment made of transparent plastic (a box of the same shape as that of the dark compartment having the length of 16 cm, lightened from a location spaced 25 cm above by a 60 W electric lamp) was provided adjacent to the dark compartment. Between the two compartments, there was provided a circular entrance having the diameter of 3 cm with a guillotine door which could be opened and closed. By using the above-mentioned dark-light box, the experiment was carried out according to the following procedure.
# A mouse (5 week-old) previously conditioned in the dark-light box was put in the light compartment and the guillotine door was opened. Three seconds after the mouse moved into the dark compartment and interrupted the photobeam, 0.3 mA electrical shock was given to limbs for 3 seconds from the floor grid (aquisition trial). Just after the mouse rushed into the light compartment, the door was shut and the […] in the light compartment was picked out to return to his home cage. After 24 hours, the mouse was placed again in the light compartment and the period from the opening of the guillotine door to the time the mouse completely entered the dark compartment was recorded maximally 300 seconds as a step-through latency (retention trial).
# The amnesia was induced by subcutaneous injection of cycloheximide (120 mg/kg) dissolved in saline 10 minutes before the aquisition trial. As a control, the same amount of saline alone was administered. […]
# A ratio of number of mice showing the step-through latency of more than 100 seconds in the group was defined as a ratio of memory for convenience's sake.
# The step-through latency in Table 2 was the mean value for each treated group.
# [2] = target: T1, M1 receptor (Rattus norvegicus, UniProt P08482); experiment: Receptor binding activity, inhibition of [3H]pyrenzepine binding to M1; conditions: 1 nM [3H]pyrenzepine, rat's brain except cerebellum; for inhibition at 10 µM: 10 μM test compound
# T1 construct: rat's brain except for cerebellum was homogenized; from tissue; host or cells: rat brain except cerebellum, homogenate
# T1 sequence (P08482 1-460): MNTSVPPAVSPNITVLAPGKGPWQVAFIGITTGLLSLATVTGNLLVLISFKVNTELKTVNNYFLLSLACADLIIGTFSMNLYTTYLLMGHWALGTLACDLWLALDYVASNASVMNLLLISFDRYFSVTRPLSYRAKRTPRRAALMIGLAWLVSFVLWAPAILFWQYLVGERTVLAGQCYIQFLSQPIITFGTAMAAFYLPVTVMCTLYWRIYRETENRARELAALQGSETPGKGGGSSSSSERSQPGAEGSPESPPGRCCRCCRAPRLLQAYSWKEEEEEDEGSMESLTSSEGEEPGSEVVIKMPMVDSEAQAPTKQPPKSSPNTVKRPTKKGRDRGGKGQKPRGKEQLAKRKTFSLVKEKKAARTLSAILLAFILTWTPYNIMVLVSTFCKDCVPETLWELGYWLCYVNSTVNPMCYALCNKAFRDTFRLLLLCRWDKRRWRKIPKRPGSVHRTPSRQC
# Description: The binding ability of the test compounds to M1 was determined according to a modification of the method of Watson et al. (Life Sci., 32, 3001 (1983)). […] The mixture was incubated for 1 hour. The inhibition rate (%) of the binding with [3H]pyrenzepine was evaluated. The higher inhibition means the higher affinity of the test compound for M1 receptor.
# [3] = Acute toxicity test, oral; format: in vivo, ddY male mice; conditions: mouse, in vivo, ddY mice, 2 weeks observation
# Description: With respect to the compounds 1 to 86 shown in Table 1 as test compounds, the acute toxicity was examined using ddY mice according to the following method.
# In each group, six male ddY mice weighing 27 to 30 g were employed. The compounds 1 to 86 suspended in an aqueous solution of 0.5% sodium carboxymethylcellulose were administered orally in a volume of 0.1 ml/10 g body weight. […] The LD50 (mg/kg) values were estimated from the ratio of the number of dead mice to the number of mice used.
# [4] = test system: forced swimming test with rats (duration of immobility); experiment: Antidepressant activity: forced swimming test using rats; format: in vivo, Wistar male rats; conditions: for Suppression of duration of immobility: vs saline; for Effect on duration of immobility (in words): oral administration
# Description: as §1
# That is, a rat (5 week-old) was placed into a glass cylinder having the inside diameter of 18 cm and the height of 40 cm which contained water (water temperature: 25° C.) up to its height of 15 cm. After 15 minutes, the rat was picked up followed by drying and then returned to his home cage. After 24 hours, the rat was again placed into the water in the same cylinder. The duration of immobility (the time rat kept motionless) was accumulatively measured with a stopwatch for five minutes (a five minutes' test). Each test compound was suspended in saline. The administration was carried out three times, at 24, 5 and 1 hour before the five minutes' test in case of an intraperitoneal administration or with only a single administration at 1 hour before the five minutes' test in case of an oral administration to examine the antidepressant effect.
# The duration of immobility in Table 4 is the mean value for […] in each group. Suppression is expressed as a ratio in percentage of a reduction of the duration of immobility in the group administered with the test compound to that in the control group administered with saline alone.
# [5] = p.o., 30 mg/kg, 1 hour before test
SMILES,Step-through latency ([1]; 3 mg/kg oral) [s],responders at 3 mg/kg ([1]; 3 mg/kg oral) [%],LD50 at 336 h [3] [mg/kg],Step-through latency ([1]; 1 mg/kg oral) [s],responders at 1 mg/kg ([1]; 1 mg/kg oral) [%],also measured
O=C1NC(N2CCCC2)CC1=Cc1cccc(Oc2ccccc2)c1 (stereo not shown) [Compound 59],157,50,≥ 500,,,inhibition at 10 µM [2]: 56%
O=C1NCCC1=Cc1cccc(Oc2ccccc2)c1 [Compound 1],198,72,≥ 500,,,"Duration of immobility ([4]; i.p., 1 mg/kg/time, 24, 5 and 1 hour before test): 164 s; Suppression of duration of immobility ([4]; i.p., 1 mg/kg/time): 20%; Duration of immobility ([4]; i.p., 3 mg/kg/time, 24, 5 and 1 hour before test): 101 s; Suppression of duration of immobility ([4]; i.p., 3 mg/kg/time): 50%; Duration of immobility ([4]; i.p., 10 mg/kg/time, 24, 5 and 1 hour before test): 71 s; Suppression of duration of immobility ([4]; i.p., 10 mg/kg/time): 65%; Duration of immobility ([4]; i.p., 30 mg/kg/time, 24, 5 and 1 hour before test): 54 s; Suppression of duration of immobility ([4]; i.p., 30 mg/kg/time): 74%; Duration of immobility ([4]; p.o., 0.3 mg/kg, 1 hour before test): 190 s; Suppression of duration of immobility ([4]; p.o., 0.3 mg/kg): 7%; Duration of immobility ([4]; p.o., 1 mg/kg, 1 hour before test): 165 s; Suppression of duration of immobility ([4]; p.o., 1 mg/kg): 20%; Duration of immobility ([4]; p.o., 3 mg/kg, 1 hour before test): 137 s; Suppression of duration of immobility ([4]; p.o., 3 mg/kg): 33%; Duration of immobility ([4]; p.o., 10 mg/kg, 1 hour before test): 76 s; Suppression of duration of immobility ([4]; p.o., 10 mg/kg): 63%; Duration of immobility [4, 5]: 34 s; Suppression of duration of immobility ([4]; p.o., 30 mg/kg): 83%"
CON1CCC(=Cc2cccc(Oc3ccccc3)c2)C1=O [Compound 22],100,50,≥ 500,,,inhibition at 10 µM [2]: 63%
CCN1CC(=Cc2cccc(Oc3ccccc3)c2)CC1C (stereo not shown) [Compound 75],,,≥ 500,160,50,inhibition at 1 µM ([2]; 1 μM test compound): 65%
CC(C)N1CCC(=Cc2cccc(Oc3ccccc3)c2)C1=O [Compound 16],176,75,≥ 500,,,inhibition at 10 µM [2]: 75%
CCN1CC(=Cc2cccc(Oc3ccccc3)c2)C(C)C1 (stereo not shown) [Compound 76],,,≥ 500,109,50,inhibition at 1 µM ([2]; 1 μM test compound): 80%
NC(=O)CN1CCC(=Cc2cccc(Oc3ccccc3)c2)C1=O [Compound 32],,,≥ 500,94,50,inhibition at 10 µM [2]: 91%
"C#CCN(C)Cc1ccccc1 [Pargyline, pargyline, reference compound]",,,,,,"Effect on duration of immobility (in words) [4]: prolongation of the duration of immobility; Duration of immobility [4, 5]: 244 s; Suppression of duration of immobility ([4]; p.o., 30 mg/kg): -19%"
C=CCN1CCC(=Cc2cccc(Oc3ccccc3)c2)C1=O [Compound 20],,,≥ 500,,,inhibition at 10 µM [2]: 88%
"CN(C)CCCN1c2ccccc2CCc2ccccc21 [Imipramine, imipramine, reference compound]",,,,,,"Duration of immobility ([4]; i.p., 100 mg/kg/time, 24, 5 and 1 hour before test): 79 s; Suppression of duration of immobility ([4]; i.p., 100 mg/kg/time): 61%; Effect on duration of immobility (in words) [4]: no effect; Duration of immobility [4, 5]: 210 s; Suppression of duration of immobility ([4]; p.o., 30 mg/kg): -2%"
COc1ccc(C(=O)N2CCC(=Cc3cccc(Oc4ccccc4)c3)C2=O)cc1 [Compound 43],179,100,≥ 500,,,
O=C1C(=Cc2cccc(Oc3ccccc3)c2)CCN1Cc1ccc(Cl)cc1 [Compound 50],100,50,≥ 500,,,
CC(=O)CN1CCC(=Cc2cccc(Oc3ccccc3)c2)C1=O [Compound 45],,,≥ 500,169,50,
NC(=O)N1CCC(=Cc2cccc(Oc3ccccc3)c2)C1 [Compound 73],,,≥ 500,119,50,
CCCCN1CCC(=Cc2cccc(Oc3ccccc3)c2)C1 [Compound 68],,,≥ 500,179,75,
CCCCC1C(=Cc2cccc(Oc3ccccc3)c2)CCN1CC (stereo not shown) [Compound 79],,,≥ 500,168,50,
CCN1C(=O)C(=Cc2cccc(Oc3ccccc3)c2)CC1C (stereo not shown) [Compound 53],114,50,≥ 500,,,
CCN1CC(C)C(=Cc2cccc(Oc3ccccc3)c2)C1=O (stereo not shown) [Compound 61],,,≥ 500,90,50,
CCN1CCC(=Cc2cccc(Oc3ccccc3)c2)C1 [Compound 67],,,,100,50,Inhibition of the binding with [3H]pyrenzepine (M1) ([2]; 1 μM test compound): 78%
O=C1NCCC1=Cc1ccc(Oc2ccccc2)c([N+](=O)[O-])c1 [Compound 7],113,50,≥ 500,,,
C(=C1CCN(C2CC2)C1)c1cccc(Oc2ccccc2)c1 [Compound 85],,,≥ 500,97,25,
O=C1NCC(c2ccccc2)C1=Cc1cccc(Oc2ccccc2)c1 (stereo not shown) [Compound 62],170,50,≥ 500,,,
N#CCN1CCC(=Cc2cccc(Oc3ccccc3)c2)C1=O [Compound 37],,,≥ 500,110,50,
O=C1NC(CO)CC1=Cc1cccc(Oc2ccccc2)c1 (stereo not shown) [Compound 58],,,≥ 500,111,50,
CCC1C(=Cc2cccc(Oc3ccccc3)c2)CCN1CC (stereo not shown) [Compound 78],,,≥ 500,132,75,
CCOC(=O)CN1CCC(=Cc2cccc(Oc3ccccc3)c2)C1=O [Compound 28],100,50,≥ 500,,,
